In patent US12083109B2, “Neurokinin antagonists and uses thereof” (California Institute of Technology, priority 2017, dated 2024):

T1: Nk3R (Mus musculus, UniProt P47937)
T1 sequence (P47937 1-452): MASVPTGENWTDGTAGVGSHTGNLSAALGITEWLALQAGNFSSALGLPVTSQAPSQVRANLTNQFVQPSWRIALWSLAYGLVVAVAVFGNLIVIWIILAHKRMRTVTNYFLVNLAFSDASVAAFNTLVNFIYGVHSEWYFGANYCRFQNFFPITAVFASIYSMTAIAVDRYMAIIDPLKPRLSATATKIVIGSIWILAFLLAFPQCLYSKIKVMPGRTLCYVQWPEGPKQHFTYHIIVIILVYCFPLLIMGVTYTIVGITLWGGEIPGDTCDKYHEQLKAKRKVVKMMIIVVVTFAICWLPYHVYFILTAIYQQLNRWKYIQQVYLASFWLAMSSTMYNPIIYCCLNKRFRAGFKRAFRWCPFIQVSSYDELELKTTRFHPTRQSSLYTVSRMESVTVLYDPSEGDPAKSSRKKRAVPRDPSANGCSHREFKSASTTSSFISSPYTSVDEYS


Tests used:
Nk3R = molecular target: T1, Nk3R; assay: Resident intruder assay (aggression), osanetant; type: in vivo; parameters: from tissue; host or cells: Living mice (wild-type C57Bl6/N males, Charles River)
Method: Testing for aggression using the resident intruder assay (Blanchard et al., 2003; incorporated by reference in its entirety) was performed as previously described (Hong et al., 2015; Hong et al., 2014; Lee et al., 2014; incorporated by reference in their entirety). Briefly, experimental mice (“residents”) were transported in their homecage to a novel behavior testing room (cagemates in group housed mice were removed from the homecage prior to transport for this and all other behavioral tests), where they acclimated for 5-15 minutes. Homecages were then slotted into a customized behavioral chamber lit with a surround panel of infrared lights and equipped with two synchronized infrared video cameras (Pointgrey) placed at 90-degree angles from each other to allow for simultaneous behavior recording with a front and top view. Synchronized video was acquired using Hunter 4.0 software (custom, Pietro Perona lab, Caltech). Following a two-minute baseline period, an unfamiliar male BALB/c mouse (“intruder”) was placed in the homecage of the resident for 10 minutes and mice were allowed to freely interact. Group housed BALB/c males were used as intruders because they are a relatively submissive strain, thereby reducing any intruder-initiated fighting. Behavior videos were hand-annotated by an observer blind to experimental conditions (Behavior Annotator, Piotr's MATLAB toolbox; http://vision.ucsd.edu/˜pdollar/toolbox/doc/). Fighting bouts were scored on a frame-by-frame basis and were defined as a frame during which the resident male was engaged in an episode of biting or intense aggressive behavior immediately surrounding a biting episode. Annotation files were then batch analyzed for behavior, including number of fighting bouts, using in-house customized programs in MATLAB (A. Kennedy, Caltech).
Mice were administered the Nk3R antagonist osanetant (Axon Medchem, Axon 1533) either systemically or intra-brain region. Osanctant was dissolved in saline with 0.1% Tween 20 (vehicle). For systemic administration mice received an intraperitoneal (i.p.) injection (5 mg/kg) 20 minutes prior to behavioral testing. For microinfusions, guide cannulas were removed from mice and replaced with injector cannulas (Plastics One), which protruded 0.5 mm from the tip of the guide cannula. Injectors were attached to 5 μl Hamilton syringes with PE tubing (Plastics One) and mounted on a microinfusion pump (Harvard Apparatus) for controlled infusion of osanetant (0.3 μl vehicle with 375 ng dose per site injected over 6 minutes). For experiments using systemic administration of clozapine-N-oxide (CNO), CNO (Enzo Life Sciences-Biomol, BML-NS105-0005) was dissolved in saline (9 g/L NaCl) and injected (i.p.) at 5 mg/kg for hM4DREADD silencing or 2 mg/kg for hM3DREADD activation 20 minutes prior to behavioral testing. CNO was also administered chronically in drinking water (0.5 mg CNO/100 ml water).

Tac2 = assay: Resident intruder assay, Tac2 shRNA knockdown; type: in vivo, mouse; conditions: SIS mice
Source text: Small hairpin RNA (shRNA) for the mouse Tac2 gene (NM_009312.2) were designed using the online designing tool siDirect 2.0 (http://sidirect2.mai.jp/) (Naito et al., 2009; incorporated by reference in its entirety).
8-16 week old mice were anesthetized with isoflurane and mounted in a stereotaxic apparatus (Kopf Instruments). Anesthesia was maintained throughout surgery at 1-1.5% isoflurane. The skull was exposed and small burr holes produced dorsal to each injection site using a stereotaxic mounted drill. […] Directly following surgery, mice were given a subcutaneous injection of ketoprofen (2 mg/kg) and supplied with drinking water containing 400 mg/L sulphamethoxazole and 200 mg/L ibuprofen and monitored for 7 days. […]
Testing for aggression using the resident intruder assay (Blanchard et al., 2003; incorporated by reference in its entirety) was performed as previously described (Hong et al., 2015; Hong et al., 2014; Lee et al., 2014; incorporated by reference in their entirety). […] Fighting bouts were scored on a frame-by-frame basis and were defined as a frame during which the resident male was engaged in an episode of biting or intense aggressive behavior immediately surrounding a biting episode. Annotation files were then batch analyzed for behavior, including number of fighting bouts, using in-house customized programs in MATLAB (A. Kennedy, Caltech). […]

aggression promoted by sexual experience (Nk3R; 2 weeks co-habitation with a female, no isolation, systemic osanetant) | SIS-enhanced aggression (Nk3R; SIS mice (2 weeks isolation), osanetant 5 mg/kg i.p. 20 min before test) | SIS-enhanced aggression (Nk3R; SIS mice (2 weeks isolation), osanetant 5 mg/kg i.p. 20 min before test, listed as Osanetant) | SIS-enhanced aggression (Nk3R; osanetant daily during two-week isolation, tested off-drug) | aggression (Nk3R; osanetant injection into CeA) | SIS-induced aggression (Nk3R; osanetant microinfusion into DMH) | SIS-induced aggression (Nk3R; osanetant microinfusion into DMH, listed as Osanetant) | SIS-induced aggression (Nk3R; osanetant microinfusion into dBNSTa) | Molecule | SIS-induced aggression (Tac2; AAV shRNA in DMH) | SIS-induced aggression (Tac2; AAV shRNA in dBNSTa)
had no effect | blocked | strongly reduced | prevented | unaffected | abolished | selectively blocked | no effect | CC(=O)N(C)C1(c2ccccc2)CCN(CCC[C@]2(c3ccc(Cl)c(Cl)c3)CCCN(C(=O)c3ccccc3)C2)CC1 [osanetant, N-(1-{3-[(3R)-1-benzoyl-3-(3,4-dichlorophenyl)piperidin-3-yl]propyl}-4-phenylpiperidin-4-yl)-N-methylacetamide] |  | 
 |  |  |  |  |  |  |  | shRNA-1: small hairpin RNA for mouse Tac2 gene (SEQ ID NO: 9, 10), expressed from AAV5-H1-shRNA-CMV-zsGreen (nucleic acid) chain 1: CCGACGTGGTTGAAGAGAACACCGCTTCCTGTCACGGTGTTCTCTTCAACCACGTCTTTTTT chain 2: AAAAAAGACGTGGTTGAAGAGAACACCGTGACAGGAAGCGGTGTTCTCTTCAACCACGTCGG | blocked | had no effect
